The values that follow come from patent US20250122155A1, “NOVEL INDOLE DERIVATIVE, PHARMACEUTICAL COMPOSITION COMPRISING SAME, AND USE THEREOF” (MITOIMMUNE THERAPEUTICS INC., priority 2021, published 2025).

Like-named read-outs stand apart in the source and are kept apart here. A value given as a limit tells only on which side of the number the result lay.

The nature of series [1]: Plasma and brain drug concentration after oral administration (HPLC-MS/MS). It counts as in vivo. The note with it: for drug concentration in brain / drug concentration in plasma / concentration at 2 h / concentration at 24 h / concentration at 0.5 h / concentration at 1 h / concentration at 4 h / concentration at 8 h / AUC(0-t): 10 mg/kg; for AUC(0-inf): read-out: area under the plasma concentration v. time curve (AUCinf); for concentration at 2 h / concentration at 24 h / concentration at 0.5 h / concentration at 1 h / concentration at 4 h / concentration at 8 h / AUC(0-t): ICR, mouse, po. How it is done:
[…] parameters can be represented as maximum concentration in plasma (Cmax), time taken until maximum concentration in plasma (Tmax), area under the plasma concentration-time curve (AUClast and AUCinf), and half-life (t1/2), and the like.
The compound of Example 2 was orally administered to ICR mice at a dose of 10 mg/kg, and drug concentration in mouse plasma was measured using HPLC-MS/MS spectroscopy at 0.5, 1, 2, 4, 8 and 24 hours. The mouse brains were removed at 2 or 24 hours, and drug concentration in the brain was measured using HPLC-MS/MS spectroscopy. The area under the plasma concentration v. time curve (AUCinf) was measured to be […], and at 2 hours after administration drug concentration in plasma was 398 ng/mL and brain drug concentration was measured at 683 ng/mL. […] Further, at 24 hours after administration, for Example 2, drug concentration in plasma was measured to be 5.6 ng/mL and drug concentration in the brain was measured at 11.4 ng/mL. With the brain-plasma drug concentration ratio at 2.04, drug exposure in the brain was still high.
The Comparative Example compound was orally administered to ICR mice at a dose of 10 mg/kg, and drug concentration in mouse plasma was measured using HPLC-MS/MS spectroscopy at 0.5, 1, 2, 4, 8 and 24 hours. The mouse brains were removed at 2 or 24 hours, and drug concentration in the brain was measured using HPLC-MS/MS spectroscopy.

Series [2] concerns H9C2 cells. Briefly: Protective effect on heart cells against t-BHP (LDH release). It counts as cell-based. The note with it: H9C2, t-BHP 400 μM, 2 hours, read-out: EC50 (μM), Cell Protection Effect against t-BHP in Heart Cells. In a few lines:
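H9C2 cells (1.5×10^4/well, cultured 24 h) were pretreated 15–20 min with compound at 0.01–30 μM final, then exposed 2 h to 400 μM t-BHP. LDH in supernatant was measured colorimetrically at 490 nm after 30 min room-temperature reaction; EC50 derived from protection.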
(In general: Release of lactate dehydrogenase indicates damage to the cell membrane.)

The subject of series [3] is H9C2 cells. Briefly: Maintenance of intracellular calcium level in heart cells treated with t-BHP (FLIPR Calcium 6). It counts as cell-based, rat. The note with it: H9C2, t-BHP 150 μM. On the procedure: To examine the maintenance effect on calcium level in heart cells, H9C2 cells were divided into a 96-well plate at 1.5×10^4 cells/well and cultured for 24 hours. To measure intracellular calcium level, a FLIPR Calcium 6 assay kit (Molecular devices; #R8190) was used. Following the experimental method provided by the manufacturer, cells were treated with probenecid and calcium-sensitive dye for 1.75 hours, and then the cells were treated with the compound of Example 2 for 0.25 hours (the final concentration of the compound was 0.02 or 0.01 μM). And the cells were treated with t-BHP to a final concentration of 150 μM, then intracellular calcium level was measured every 30 seconds in real time.
FIG. 1 is a graph regarding the regulatory effect of the compound of Example 2 on calcium level under t-BHP treatment. The ΔF/F(Max−Min) value on the vertical axis is the difference between the maximum and minimum fluorescence intensity values of the calcium-sensitive dye after treatment with t-BHP (150 μM), and this value increases as intracellular calcium level increases.
(In general: Calcium assays in cells follow changes in intracellular calcium, usually with a dye or a luminescent sensor.)

[4] abbreviates: ICR mouse, oral 10 mg/kg, 24 hr.
[5] abbreviates: ICR mouse, oral 10 mg/kg, plasma.
Setting [6] is: brain, 2 hr, read-out: drug concentration in brain.
Setting [7] is: brain, 24 hr, read-out: drug concentration in brain.
The mark [8] stands for this setting: plasma, 2 hr, read-out: drug concentration in plasma.
The mark [9] stands for this setting: plasma, 24 hr, read-out: drug concentration in plasma.
Setting [10] is: plasma, plasma, read-out: area under the plasma concentration v. time curve (AUClast).
[11] abbreviates: plasma, read-out: AUClast, plasma.
[12] abbreviates: brain/plasma, ICR mouse, oral 10 mg/kg, 2 hr, read-out: brain-plasma drug concentration ratio (B/P ratio).

Take `OCc1cc(NC2CCCC2)c2[nH]c(-c3ccccc3)cc2c1` [Comparative Example, reference compound]: the “drug concentration in brain” value in series [1] (ICR mouse, oral 10 mg/kg, 2 hr) is reported as 95 ng/mL; in series [1] (setting [4]), “no drug concentration was measured”. Further, the “drug concentration in plasma” value in series [1] (ICR mouse, oral 10 mg/kg, 2 hr) is 1122 ng/mL; in series [1] (setting [4]) it was “no drug concentration was measured”. Further, the AUC(0-inf) in series [1] (setting [5]) was determined as 5460 ng·h/mL. The concentration at 2 h came to 95 ng/mL in series [1] (setting [6]) and 1120 ng/mL in series [1] (setting [8]). Also, the concentration at 24 h in series [1] (setting [7]) and in series [1] (setting [9]) was 0 ng/mL throughout. The same compound registered a concentration at 0.5 h in series [1] (plasma) of 1640 ng/mL. For the same compound, the concentration at 1 h in series [1] (plasma) was found to be 2110 ng/mL. Also, the concentration at 4 h in series [1] (plasma) stood at 389 ng/mL. Also, the concentration at 8 h in series [1] (plasma) was 50.8 ng/mL. Also, the AUC(0-t) in series [1] (setting [10]) and in series [1] (setting [11]) was 5360 ng·h/mL in each case. The Kp at 2 h in series [1] (setting [12]) was determined as 0.08.

`COCCOCc1cc(NC2CCCC2)c2[nH]c(-c3ccccc3)cc2c1` [Example 2, N-cyclopentyl-5-(2-methoxyethoxymethyl)-2-phenyl-1H-indol-7-amine]: the EC50 in the series on H9C2 cells [2] was no more than 0.3 µM. Further, the “intracellular calcium level, ΔF/F(Max−Min)” value in the series with H9C2 cells [3] (compound 0.01 μM) was “significantly decreased”. Besides, the “intracellular calcium level, ΔF/F(Max−Min)” value in the series with H9C2 cells [3] (compound 0.02 μM) was “within normal range”. Moreover, the “AUClast, brain” value in series [1] (ICR mouse, oral 10 mg/kg) worked out at 8319.0 ng·h/g. For the same compound, in series [1] (ICR mouse, oral 10 mg/kg, 2 hr), the “drug concentration in brain” value turned out to be 682.8 ng/mL and the “drug concentration in plasma” value is given as 398.2 ng/mL. Besides, the AUC(0-inf) in series [1] (setting [5]) is 5420 ng·h/mL. Further, the concentration at 2 h in series [1] (setting [6]) came out at 683 ng/mL. The concentration at 24 h in series [1] (setting [7]) was 11.4 ng/mL. In series [1] (plasma), this compound had a concentration at 0.5 h of 334 ng/mL, a concentration at 1 h of 337 ng/mL, a concentration at 4 h of 672 ng/mL and a concentration at 8 h of 232 ng/mL. Moreover, the concentration at 2 h in series [1] (setting [8]) was 398 ng/mL. For the same compound, in series [1] (setting [9]), the concentration at 24 h was found to be 5.6 ng/mL. In addition, the AUC(0-t) in series [1] (setting [10]) was found to be 5400 ng·h/mL. For the same compound, the AUC(0-t) in series [1] (setting [11]) was 5400 ng·h/mL. Further, the Kp at 2 h in series [1] (setting [12]) was 1.71. Moreover, the Kp at 24 h in series [1] (brain/plasma, ICR mouse, oral 10 mg/kg, 24 hr, read-out: brain-plasma drug concentration ratio (B/P ratio)) worked out at 2.04. Besides, the Kp in series [1] (brain/plasma, ICR mouse, oral 10 mg/kg, read-out: B/P ratio of AUClast) was determined as 1.74.

One may read the EC50 as the concentration needed to bring the measured effect to its halfway point.
